Data reported in PubChem BioAssay AID2060509 (Molecular Pharmacology Branch, DTP, NCI, 2025).

System: 485176-168-R4-J1-PDC spheroids with HUVEC/MSC, viability
Assay: Anticancer human tumor 485176-168-R4-J1-PDC patient-derived pancreatic adenocarcinoma cell line growth inhibition [GQUAD]
Conditions: for IC50: curve of first compound; for viability, T/C: stronger effect = lower value
Procedure, shortened: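 Viability of tumor cells grown as complex spheroids with endothelial and stromal cells, exposed to drug combinations. Top concentration at or near clinical Cmax (else 10 microM), diluted in half-log increments.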

[1] = second compound 0.0316 µM, first compound 0.0316 µM
[2] = second compound 0.0316 µM, first compound 0.1 µM
[3] = second compound 0.0316 µM, first compound 0.316 µM
[4] = second compound 0.0316 µM, first compound 1 µM
[5] = second compound 0.0316 µM, first compound 3.16 µM
[6] = second compound 0.0316 µM, first compound 10 µM
[7] = second compound 0.1 µM, first compound 0.0316 µM
[8] = second compound 0.1 µM, first compound 0.1 µM
[9] = second compound 0.1 µM, first compound 0.316 µM
[10] = second compound 0.1 µM, first compound 1 µM
[11] = second compound 0.1 µM, first compound 3.16 µM
[12] = second compound 0.1 µM, first compound 10 µM
[13] = second compound 0.316 µM, first compound 0.0316 µM
[14] = second compound 0.316 µM, first compound 0.1 µM
[15] = second compound 0.316 µM, first compound 0.316 µM
[16] = second compound 0.316 µM, first compound 1 µM
[17] = second compound 0.316 µM, first compound 3.16 µM
[18] = second compound 0.316 µM, first compound 10 µM
[19] = second compound 1 µM, first compound 0.0316 µM
[20] = second compound 1 µM, first compound 0.1 µM
[21] = second compound 1 µM, first compound 0.316 µM
[22] = second compound 1 µM, first compound 1 µM
[23] = second compound 1 µM, first compound 3.16 µM
[24] = second compound 1 µM, first compound 10 µM
[25] = second compound 3.16 µM, first compound 0.0316 µM
[26] = second compound 3.16 µM, first compound 0.1 µM
[27] = second compound 3.16 µM, first compound 0.316 µM
[28] = second compound 3.16 µM, first compound 1 µM
[29] = second compound 3.16 µM, first compound 3.16 µM
[30] = second compound 3.16 µM, first compound 10 µM
[31] = second compound 10 µM, first compound 0.0316 µM
[32] = second compound 10 µM, first compound 0.1 µM
[33] = second compound 10 µM, first compound 0.316 µM
[34] = second compound 10 µM, first compound 1 µM
[35] = second compound 10 µM, first compound 3.16 µM
[36] = second compound 10 µM, first compound 10 µM
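Note: spheroids exposed to compounds for seven days before readout.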
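Throughout, for viability, T/C: percent viability relative to DMSO vehicle control wells as 100%.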

For Cc1cccc(N(C)C(=O)C2C(O)CCN2c2nc(C)cc(C(F)(F)F)c2C#N)c1 (centres undefined) + Cc1[nH]c2ccc(F)cc2c1-c1nc2c3cccnc3c3ncccc3c2[nH]1, the IC50 (second compound 0.0316 µM) was > 10000 nM, the IC50 (second compound 0.1 µM) was > 10000 nM and the IC50 (second compound 0.316 µM) was > 10000 nM. For the same molecule, the IC50 (second compound 1 µM) was > 10000 nM, the IC50 (second compound 3.16 µM) was > 10000 nM and the IC50 (second compound 10 µM) was > 10000 nM. For the same molecule, the viability, T/C [1] was 102%, the viability, T/C [2] was 95.1% and the viability, T/C [3] was 99.2%. It also gave a viability, T/C [4] of 89%, a viability, T/C [5] of 94.1% and a viability, T/C [6] of 99.2%. It also gave a viability, T/C [7] of 85.9%, a viability, T/C [8] of 95.4% and a viability, T/C [9] of 93.1%. For the same molecule, the viability, T/C [10] was 99%, the viability, T/C [11] was 109% and the viability, T/C [12] was 114%. The viability, T/C [13] was 93.1%, the viability, T/C [14] was 108% and the viability, T/C [15] was 103%. The viability, T/C [16] was 92.2%, the viability, T/C [17] was 93.7% and the viability, T/C [18] was 96.7%. For the same molecule, the viability, T/C [19] was 87%, the viability, T/C [20] was 100% and the viability, T/C [21] was 84.6%. The viability, T/C [22] was 85.3%, the viability, T/C [23] was 99.8% and the viability, T/C [24] was 94.1%. For the same molecule, the viability, T/C [25] was 95.5%, the viability, T/C [26] was 97.1% and the viability, T/C [27] was 84.5%. The viability, T/C [28] was 89.2%, the viability, T/C [29] was 95.1% and the viability, T/C [30] was 92.1%. For the same molecule, the viability, T/C [31] was 80.3%, the viability, T/C [32] was 92% and the viability, T/C [33] was 80.1%. The viability, T/C [34] was 90%, the viability, T/C [35] was 78.2% and the viability, T/C [36] was 99.1%.
Nc1ccn(C2OC(CO)C(O)C2(F)F)c(=O)n1 (centres undefined) + Cc1[nH]c2ccc(F)cc2c1-c1nc2c3cccnc3c3ncccc3c2[nH]1 gave an IC50 (second compound 0.0316 µM) of 50.5 nM, an IC50 (second compound 0.1 µM) of 40 nM and an IC50 (second compound 0.316 µM) of 42.1 nM. It also gave an IC50 (second compound 1 µM) of 54.1 nM, an IC50 (second compound 3.16 µM) of 54.4 nM and an IC50 (second compound 10 µM) of 57.4 nM. The viability, T/C [1] was 71.8%, the viability, T/C [2] was 18.2% and the viability, T/C [3] was 10.3%. For the same molecule, the viability, T/C [4] was 9.1%, the viability, T/C [5] was 11.2% and the viability, T/C [6] was 10.4%. For the same molecule, the viability, T/C [7] was 56.6%, the viability, T/C [8] was 24.9% and the viability, T/C [9] was 9.79%. For the same molecule, the viability, T/C [10] was 9.89%, the viability, T/C [11] was 11.8% and the viability, T/C [12] was 9.87%. The viability, T/C [13] was 58%, the viability, T/C [14] was 25.7% and the viability, T/C [15] was 12%. For the same molecule, the viability, T/C [16] was 10.1%, the viability, T/C [17] was 9.86% and the viability, T/C [18] was 11.9%. It also gave a viability, T/C [19] of 71.3%, a viability, T/C [20] of 25.6% and a viability, T/C [21] of 9.77%. For the same molecule, the viability, T/C [22] was 10.7%, the viability, T/C [23] was 12.2% and the viability, T/C [24] was 12.2%. For the same molecule, the viability, T/C [25] was 69.7%, the viability, T/C [26] was 27.8% and the viability, T/C [27] was 10.8%. It also gave a viability, T/C [28] of 12.1%, a viability, T/C [29] of 11.2% and a viability, T/C [30] of 13.9%. It also gave a viability, T/C [31] of 71.8%, a viability, T/C [32] of 29.8% and a viability, T/C [33] of 10.8%. For the same molecule, the viability, T/C [34] was 10.4%, the viability, T/C [35] was 10.2% and the viability, T/C [36] was 10.8%.
